In patent US20030237104A1 (priority 2002, published 2003):
Where two headings read alike, the source gives them in different places.

What was measured:
CB6F1-HRAS2 mice = conditions: in vivo
Salmonella = conditions: cited from earlier work
non-Tg mice (CB6F1) = conditions: mouse, in vivo
CB6F1-Tg-rasH2 mice = conditions: mouse, in vivo, ip, 75 mg/kg
rasH2 mice = conditions: mouse, in vivo, ip; cited from earlier work
[1] = CB6F1-HRAS2 and non-Tg CB6F1, mouse
[2] = CB6F1-HRAS2, mouse, sc, 15 mg/kg
[3] = CB6F1-HRAS2, mouse, ip, 60 mg/kg

## [O-][n+]1ccc(NO)c2ccccc21 [4HAQO, 4-Hydroxyaminoquinoline-1-oxide]
CB6F1-HRAS2 mice; [1]
  tumors in the exocrine portion of the pancreas: Neither the 4HAQO-treated Tg nor the non-Tg mice developed tumors
CB6F1-HRAS2 mice; mouse
  Malignant Tumors Tg: ++
  Rapid tumor response in Tg mice: +
  Tumor incidence and/or multiplicity: Tg > non-Tg
  forestomach and skin papillomas: induced
  other tumors (e.g., leukemias and thymomas): observed only in the Tg mice
Salmonella
  Genotoxicity (Salmonella): +
non-Tg mice (CB6F1)
  Malignant Tumors Non-Tg: +
  forestomach and skin papillomas: hardly observed

## O=[N+]([O-])c1cc[n+]([O-])c2ccccc12 [4NQO, 4-Nitroquinoline-1-oxide]
CB6F1-HRAS2 mice; [2]
  lung adenocarcinomas: observed only in 4NQO-treated CB6F1-HRAS2 mice
  squamous cell carcinomas of skin: observed only in 4NQO-treated CB6F1-HRAS2 mice
CB6F1-HRAS2 mice; both, CB6F1-HRAS2, mouse, sc, 15 mg/kg
  mice bearing skin papillomas: Approximately 90%
CB6F1-HRAS2 mice; mouse
  Malignant Tumors Tg: +
  Rapid tumor response in Tg mice: +
  Tumor incidence and/or multiplicity: Tg > non-Tg
CB6F1-HRAS2 mice; mouse, sc, 15 mg/kg
  incidence of lung adenoma: higher than that in corresponding non-Tg mice
non-Tg mice (CB6F1)
  Malignant Tumors Non-Tg: −
non-Tg mice (CB6F1); sc, 15 mg/kg
  skin tumors: No skin tumors were observed

## O=P1(N(CCCl)CCCl)NCCCO1 (centres unmarked) [Cyclophosphamide]
CB6F1-HRAS2 mice; CB6F1-HRAS2, mouse
  adenocarcinomas (lung): observed only in one cyclophosphamide-treated male CB6F1-HRAS2 mouse
CB6F1-HRAS2 mice; mouse
  Malignant Tumors Tg: +
  Tumor incidence and/or multiplicity: Tg ÷ non-Tg
  incidence and multiplicity of lung adenoma: not significantly higher
  incidence of lung adenoma: not significantly different from that in corresponding non-Tg mice
  lung tumors: induced lung tumors
  tumors in other organs (bladder, mammary gland, lymphatic systems): No tumor was observed
Salmonella
  Genotoxicity (Salmonella): +
non-Tg mice (CB6F1)
  Malignant Tumors Non-Tg: −

## S=C1NCCN1 [Ethylene thiourea]
CB6F1-HRAS2 mice; female, CB6F1-HRAS2, mouse
  incidence of thyroid adenocarcinoma: 9%
  thyroid adenomas incidence: 26%
CB6F1-HRAS2 mice; mouse
  Malignant Tumors Tg: +
  Tumor incidence and/or multiplicity: Tg ÷ non-Tg
  thyroid tumors: did not induce
Salmonella
  Genotoxicity (Salmonella): −
  Salmonella mutagenesis assay result: negative
non-Tg mice (CB6F1); female, CB6F1 (non-Tg)
  incidence of thyroid adenocarcinoma: 4%
  thyroid adenomas incidence: 20%
non-Tg mice (CB6F1)
  Malignant Tumors Non-Tg: +

## C[N+]([O-])=NCO [MAM, Methylazoxymethanol]
CB6F1-HRAS2 mice; mouse
  Malignant Tumors Tg: +
  Tumor incidence and/or multiplicity: Tg > non-Tg^c
  incidence and multiplicity of lung adenoma: not significantly higher
CB6F1-HRAS2 mice; mouse, sc, 20 mg/kg
  lung adenoma incidence: similar
Salmonella
  Genotoxicity (Salmonella): +
non-Tg mice (CB6F1)
  Malignant Tumors Non-Tg: −

## CN(N=O)C(N)=O [MNU, N-Methyl-N-nitrosourea]
CB6F1-HRAS2 mice; CB6F1-HRAS2, mouse
  forestomach squamous cell carcinoma: seen only in MNU-treated CB6F1-HRAS2 mice
CB6F1-HRAS2 mice; mouse
  Malignant Tumors Tg: +
  Rapid tumor response in Tg mice: +
  Tumor incidence and/or multiplicity: Tg > non-Tg
  forestomach papillomas: high incidence
  incidence and multiplicity of lung adenoma: not significantly higher
  incidence of skin papilloma: significantly high incidence
CB6F1-HRAS2 mice; mouse, 75 mg/kg
  incidence of lymphoma: higher
Salmonella
  Genotoxicity (Salmonella): +
CB6F1-Tg-rasH2 mice
  incidences of forestomach tumor and malignant lymphoma among institutions: High and consistent incidences
  incidences of tumor (squamous cell tumor in forestomach, skin, vagina; Harderian gland carcinoma; lung adenomas; malignant lymphoma): increased
rasH2 mice
  forestomach and skin papillomas: higher incidence
non-Tg mice (CB6F1)
  Malignant Tumors Non-Tg: −
  forestomach papillomas: no papillomas
  skin papillomas and hyperplasias: did not induce

## C=COC(N)=O [Vinyl carbamate]
CB6F1-HRAS2 mice; [3]
  lung adenocarcinomas incidence: 50%
  lung adenomas incidence: 100%
  mice bearing spleen hemangiosarcomas: Approximately 90%
CB6F1-HRAS2 mice; [1]
  liver tumors: neither CB6F1-HRAS2 mice nor control non-Tg mice treated with these compounds developed liver tumors
CB6F1-HRAS2 mice; mouse
  Malignant Tumors Tg: ++
  Rapid tumor response in Tg mice: +
  Tumor incidence and/or multiplicity: Tg > non-Tg
Salmonella
  Genotoxicity (Salmonella): +
non-Tg mice (CB6F1); CB6F1 (non-Tg), ip, 60 mg/kg
  lung adenomas incidence: > 90%
non-Tg mice (CB6F1)
  Malignant Tumors Non-Tg: +
non-Tg mice (CB6F1); ip, 60 mg/kg
  incidence of lung adenocarcinoma: much lower
  spleen hemangiosarcomas: none developed
  tumor multiplication (lung adenomas): lower
